The values below come from ChEMBL document CHEMBL1127945, “5-Aryl-, butenolide, a new class of antibacterial derived from the N-aryl oxazolidinone DUP 721” (1994).

In brackets after ≈: the same amount, converted by molar mass.

Assay type in all cases: functional
One assay concerns Streptococcus pyogenes. Put plainly: In vitro antibacterial activity against sensitive strain Streptococcus pyogenes 77A.
In assay [1] the test system is Enterococcus faecium. Nature of the assay: In vitro antibacterial activity against vancomycin resistant strain Streptococcus faecium 02D3IP1.
Assay [2] concerns Staphylococcus epidermidis. Put plainly: In vitro antibacterial activity against oxacilline resistant strain Staphylococcus epidermidis 012GO39.
In assay [3] the test system is Staphylococcus aureus. Nature of the assay: In vitro antibacterial activity against sensitive strain Staphylococcus aureus SG 511.
The test system of the next assay is Escherichia coli. Put plainly: In vitro antibacterial activity against Escherichia coli UC 1894.
The next assay deals with Enterococcus faecalis. Put plainly: In vitro antibacterial activity against vancomycin resistant strain Streptococcus faecalis 02D2DU17.
Assay [4] relates to Staphylococcus aureus. Nature of the assay: In vitro antibacterial activity against oxacilline resistant strain Staphylococcus aureus O11CB20.
Assay [5] relates to Enterococcus faecium. Put plainly: In vitro antibacterial activity against sensitive strain Streptococcus faecium M78L.

Broadly, the MIC is the least concentration at which growth counts as inhibited. Read a low MIC as inhibition by little substance. With `CC(=O)NC[C@H]1CN(c2ccc(C(C)=O)cc2)C(=O)O1` [DUP-721], the MIC was 0.6 µg/mL (≈ 2.17 µM) with Streptococcus pyogenes; below 1.2 µg/mL against Enterococcus faecium [1]; 2.5 µg/mL (≈ 9.05 µM) in assay [2]; 1.2 µg/mL (≈ 4.34 µM) in the assay with Staphylococcus aureus [3]; above 40 µg/mL with Escherichia coli; 2.5 µg/mL (≈ 9.05 µM) against Enterococcus faecalis. Besides, the minimal inhibitory concentration (MIC) in the assay with Staphylococcus aureus [4] amounted to 1.2 µg/mL (≈ 4.34 µM); against Enterococcus faecium [5], 2.5 µg/mL (≈ 9.05 µM).

As to `CC(=O)NC[C@@H]1CCN(c2ccc(C(C)=O)cc2)C1`, the MIC (against Streptococcus pyogenes; in the assay with Enterococcus faecium [1]; in assay [2]; against Staphylococcus aureus [3]; against Escherichia coli; against Enterococcus faecalis) was above 40 µg/mL throughout. This molecule also gave an MIC in the assay on Enterococcus faecium [5] above 40 µg/mL.

As for `CC(=O)NC[C@@H]1CC(=O)N(c2ccc(C(C)=O)cc2)C1`, the MIC (with Streptococcus pyogenes; in the assay with Enterococcus faecium [1]; in assay [2]; with Staphylococcus aureus [3]; with Escherichia coli; with Enterococcus faecalis) was above 40 µg/mL in each case. This molecule also came in with an MIC in the assay with Enterococcus faecium [5] above 40 µg/mL.

Turning to `CC(=O)NC[C@H]1C=C(c2ccc(C(C)=O)cc2)C(=O)O1`, the MIC is 2.5 µg/mL (≈ 9.15 µM) in the assay with Streptococcus pyogenes; 2.5 µg/mL (≈ 9.15 µM) with Enterococcus faecium [1]; 2.5 µg/mL (≈ 9.15 µM) in assay [2]; 1.2 µg/mL (≈ 4.39 µM) in the assay on Staphylococcus aureus [3]; above 40 µg/mL in the assay with Escherichia coli; 2.5 µg/mL (≈ 9.15 µM) against Enterococcus faecalis. Moreover, the MIC with Staphylococcus aureus [4] was 1.2 µg/mL (≈ 4.39 µM); with Enterococcus faecium [5], 5 µg/mL (≈ 18.3 µM).
